Results from publication PMC4497560 (Bioorganic & medicinal chemistry letters, 2014).

How the values were obtained:
Format in all cases: biochemical
[1] = target: T1, lymphoid tyrosine phosphatase (LYP) (Homo sapiens, UniProt Q9Y2R2); assay: LYP enzymatic activity assay, chelator fragments with and without zinc acetate; conditions: for Time dependence of LYP inhibition: incubation 0, 30, 60, 120 min; for Effect on LYP enzymatic activity alone: chelator alone, no added zinc; for Chelator concentration sufficient to restore LYP activity: two equiv
T1 sequence (Q9Y2R2 24-289 limits assumed): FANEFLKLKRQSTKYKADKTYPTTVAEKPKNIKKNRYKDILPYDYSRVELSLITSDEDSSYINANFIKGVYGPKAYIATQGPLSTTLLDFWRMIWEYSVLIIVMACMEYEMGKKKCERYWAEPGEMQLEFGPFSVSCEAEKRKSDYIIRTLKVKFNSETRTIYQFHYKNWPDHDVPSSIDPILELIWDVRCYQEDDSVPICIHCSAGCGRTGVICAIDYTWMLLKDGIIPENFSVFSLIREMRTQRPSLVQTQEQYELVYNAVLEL

[2] = tested on: YopH
[3] = tested on: PTP1B; assay: Inhibition of PTP1B by compound 1h; conditions: Figure 6
[4] = tested on: CD45; assay: Inhibition of CD45 by compound 1h; conditions: Figure 6
[5] = in the presence of 40 μM zinc acetate

O=C1C=Cc2ccccc2C1=O [1,2-naphthoquinone, reference compound]
Time dependence of LYP inhibition [1]: time-dependent manner

Oc1ccc2ccccc2c1O [Compound 1h, 1,2-dihydroxynaphthalene]
Selectivity for LYP over YopH [2]: modest selectivity | Time dependence of LYP inhibition [1]: time-dependent inhibitor | Selectivity for LYP over PTP1B [3]: modest selectivity | Selectivity for LYP over CD45 [4]: modest selectivity

c1ccc(CNCc2ccccn2)nc1 [Compound 3g, di-(2-picolyl)-amine]
Effect on LYP enzymatic activity alone [1]: little effect | Rescue of LYP from zinc-mediated inhibition [1, 5]: capable of rescuing the enzyme from zinc-mediated inhibition | Chelator concentration sufficient to restore LYP activity [1, 5]: 80 µM

O=C1C=C(O)C(=O)c2ccccc21 [Compound 5g, 2-hydroxy-1,4-naphthoquinone]
Inhibition of LYP in the presence of zinc ([1]; 5 μM zinc acetate, follow-up studies): consistent concentration-dependent inhibition | Inhibition of LYP at the initial time point ([1]; absence of zinc, 0 min incubation): essentially no inhibition | Combined effect with zinc on LYP inhibition ([1]; in the presence of zinc (Figure S2)): additive effect | Time dependence of LYP inhibition [1]: time- dependent inhibition

O=C(O)c1cccc(C(=O)O)n1 [Compound 8a, 2,6-pyridine dicarboxylic acid]
Effect on LYP enzymatic activity alone [1]: little effect | Chelator equivalents (relative to zinc) required to restore LYP activity [1, 5]: slightly more than two equiv | Rescue of LYP from zinc-mediated inhibition [1, 5]: capable of rescuing the enzyme from zinc-mediated inhibition

Oc1ccc(Cl)c2cccnc12 [Compound 12b, 5-chloro-8-quinolol]
Effect on LYP enzymatic activity alone [1]: little effect | Rescue of LYP from zinc-mediated inhibition [1, 5]: capable of rescuing the enzyme from zinc-mediated inhibition | Chelator concentration sufficient to restore LYP activity [1, 5]: 80 µM

CC(=O)[O-].CC(=O)[O-].[Zn+2] [zinc acetate, reference compound]
Inhibition of LYP ([1]; 100 μM zinc(II) acetate, standard assay conditions): complete inhibition | LYP activity, % of the control ([1]; at 5 μM zinc acetate): 80% | LYP activity, % of the control [1, 5]: 20%
